From US20230079819A1, “COMPOUNDS AND USES THEREOF” (Foghorn Therapeutics Inc., priority 2019, published 2023)

How the values were obtained:
BRG-1 = biological target: T1, BRG-1 (Homo sapiens, UniProt P51532); test: ATPase catalytic activity of BRG-1, ADP-Glo in vitro biochemical assay; settings: ATPase catalytic activity, 30 nM BRG-1, 400 μM ATP, read-out: BRG1 IP50 (μM)*
T1 construct: made in house; host or cells: High Five insect cells

BRM = biological target: T2, BRM (Homo sapiens, UniProt P51531); test: ATPase catalytic activity of BRM, ADP-Glo in vitro biochemical assay; settings: ATPase catalytic activity, 30 nM BRM, 400 μM ATP, read-out: BRM IP50 (μM)*
T2 construct: made in house; host or cells: High Five insect cells
T2 sequence (P51531 whole entry): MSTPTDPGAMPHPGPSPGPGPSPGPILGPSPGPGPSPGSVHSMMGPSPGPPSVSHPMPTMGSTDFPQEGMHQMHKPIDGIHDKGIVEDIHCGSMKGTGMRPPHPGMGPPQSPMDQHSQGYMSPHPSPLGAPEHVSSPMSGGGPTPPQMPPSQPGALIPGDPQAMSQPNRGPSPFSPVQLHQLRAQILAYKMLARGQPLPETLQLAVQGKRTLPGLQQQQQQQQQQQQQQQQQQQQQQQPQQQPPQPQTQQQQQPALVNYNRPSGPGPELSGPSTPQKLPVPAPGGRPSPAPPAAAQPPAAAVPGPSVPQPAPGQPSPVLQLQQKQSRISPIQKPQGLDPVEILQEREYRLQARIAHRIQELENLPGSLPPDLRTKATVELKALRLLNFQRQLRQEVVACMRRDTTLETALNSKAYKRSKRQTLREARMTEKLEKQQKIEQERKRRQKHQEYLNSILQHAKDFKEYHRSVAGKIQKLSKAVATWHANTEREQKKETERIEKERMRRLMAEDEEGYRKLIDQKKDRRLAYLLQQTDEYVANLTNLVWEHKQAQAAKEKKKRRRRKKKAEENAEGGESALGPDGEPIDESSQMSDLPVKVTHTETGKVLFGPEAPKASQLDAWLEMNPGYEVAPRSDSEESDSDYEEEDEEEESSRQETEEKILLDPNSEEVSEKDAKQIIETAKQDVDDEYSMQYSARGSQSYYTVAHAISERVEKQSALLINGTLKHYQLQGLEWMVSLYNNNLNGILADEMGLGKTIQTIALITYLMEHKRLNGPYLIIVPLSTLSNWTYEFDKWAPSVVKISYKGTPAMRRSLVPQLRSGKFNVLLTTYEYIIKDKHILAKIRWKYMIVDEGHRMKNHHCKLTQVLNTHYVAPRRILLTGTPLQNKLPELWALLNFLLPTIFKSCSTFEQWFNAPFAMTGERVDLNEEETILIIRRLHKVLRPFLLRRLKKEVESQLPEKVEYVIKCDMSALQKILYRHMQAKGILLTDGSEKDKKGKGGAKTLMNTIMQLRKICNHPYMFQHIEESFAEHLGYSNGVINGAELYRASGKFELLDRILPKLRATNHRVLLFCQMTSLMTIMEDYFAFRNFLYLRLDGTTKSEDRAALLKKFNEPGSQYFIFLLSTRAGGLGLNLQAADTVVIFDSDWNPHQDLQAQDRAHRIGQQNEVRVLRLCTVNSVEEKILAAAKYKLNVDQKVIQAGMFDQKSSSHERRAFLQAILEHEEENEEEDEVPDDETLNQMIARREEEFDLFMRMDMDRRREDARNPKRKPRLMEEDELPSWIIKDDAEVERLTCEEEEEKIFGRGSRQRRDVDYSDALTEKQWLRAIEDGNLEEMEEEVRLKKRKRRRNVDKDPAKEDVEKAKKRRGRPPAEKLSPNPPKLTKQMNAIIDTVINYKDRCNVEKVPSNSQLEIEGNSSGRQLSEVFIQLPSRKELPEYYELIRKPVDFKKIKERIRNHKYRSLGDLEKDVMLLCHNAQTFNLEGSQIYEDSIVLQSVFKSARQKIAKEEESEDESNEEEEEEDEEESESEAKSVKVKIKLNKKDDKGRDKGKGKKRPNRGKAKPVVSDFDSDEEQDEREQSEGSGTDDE

T1 sequence (P51532 whole entry): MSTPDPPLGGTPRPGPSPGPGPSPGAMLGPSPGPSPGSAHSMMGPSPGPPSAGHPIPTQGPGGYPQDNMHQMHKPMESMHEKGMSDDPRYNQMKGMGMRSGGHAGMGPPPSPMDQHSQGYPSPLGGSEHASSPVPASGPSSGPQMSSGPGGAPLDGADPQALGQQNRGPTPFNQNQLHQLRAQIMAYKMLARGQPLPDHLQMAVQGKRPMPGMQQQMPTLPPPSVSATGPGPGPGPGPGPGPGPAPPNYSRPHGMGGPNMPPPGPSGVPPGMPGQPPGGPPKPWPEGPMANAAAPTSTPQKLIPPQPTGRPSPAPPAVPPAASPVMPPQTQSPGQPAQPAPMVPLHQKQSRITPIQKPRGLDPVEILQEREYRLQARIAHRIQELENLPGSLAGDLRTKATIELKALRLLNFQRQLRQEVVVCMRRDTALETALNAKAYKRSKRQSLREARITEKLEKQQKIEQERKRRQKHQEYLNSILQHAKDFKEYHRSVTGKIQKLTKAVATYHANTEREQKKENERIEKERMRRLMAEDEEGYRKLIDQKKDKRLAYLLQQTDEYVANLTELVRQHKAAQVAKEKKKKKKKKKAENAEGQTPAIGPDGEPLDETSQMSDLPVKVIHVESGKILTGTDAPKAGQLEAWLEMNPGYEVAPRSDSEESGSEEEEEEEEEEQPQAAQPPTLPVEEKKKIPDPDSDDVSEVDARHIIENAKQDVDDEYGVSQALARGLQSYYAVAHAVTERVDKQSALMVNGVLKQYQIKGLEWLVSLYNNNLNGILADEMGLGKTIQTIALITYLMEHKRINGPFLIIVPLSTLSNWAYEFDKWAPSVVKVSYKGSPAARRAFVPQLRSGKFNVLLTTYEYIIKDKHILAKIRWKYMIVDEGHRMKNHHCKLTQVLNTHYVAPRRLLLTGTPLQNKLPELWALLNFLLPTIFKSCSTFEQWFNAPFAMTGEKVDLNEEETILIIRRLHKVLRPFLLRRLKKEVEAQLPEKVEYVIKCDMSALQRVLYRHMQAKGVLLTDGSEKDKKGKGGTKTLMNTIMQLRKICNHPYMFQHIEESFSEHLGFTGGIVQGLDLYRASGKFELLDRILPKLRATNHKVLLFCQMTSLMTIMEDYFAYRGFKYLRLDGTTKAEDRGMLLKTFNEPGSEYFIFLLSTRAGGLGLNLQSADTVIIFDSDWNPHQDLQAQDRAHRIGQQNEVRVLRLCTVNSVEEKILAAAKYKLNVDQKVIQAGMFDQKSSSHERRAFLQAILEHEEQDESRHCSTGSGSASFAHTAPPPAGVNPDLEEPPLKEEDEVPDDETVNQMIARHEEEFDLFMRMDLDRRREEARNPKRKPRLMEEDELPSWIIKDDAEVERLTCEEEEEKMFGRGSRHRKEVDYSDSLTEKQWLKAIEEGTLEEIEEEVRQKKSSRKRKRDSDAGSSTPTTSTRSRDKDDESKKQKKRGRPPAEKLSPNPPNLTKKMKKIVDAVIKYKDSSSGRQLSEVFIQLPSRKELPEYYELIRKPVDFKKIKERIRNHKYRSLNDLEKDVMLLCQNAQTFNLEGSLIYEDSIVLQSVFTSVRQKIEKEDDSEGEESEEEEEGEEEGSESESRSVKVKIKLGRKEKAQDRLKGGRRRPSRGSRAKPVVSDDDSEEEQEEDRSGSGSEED

IC50 (BRG-1) [µM] | IC50 (BRM) [µM] | SMILES
> 0.01 | > 0.01 | CC(C)(C)C[C@H](NC(=O)c1ccn(S(C)(=O)=O)c1)C(=O)Nc1nc(-c2cccc(-c3ccncc3)c2)cs1 [Compound 76, (S)—N-(4,4-dimethyl-1-oxo-1-((4-(3-(pyridin-4-yl)phenyl)thiazol-2-yl)amino)pentan-2-yl)-1-(methylsulfonyl)-1H-pyrrole-3-carboxamide]
> 0.01 | > 0.01 | CN(C)CCC(NC(=O)c1ccn(S(C)(=O)=O)c1)C(=O)Nc1nc(-c2cccc(-c3ccncc3)c2)cs1 (centres unmarked) [Compound 77, N-(4-(dimethylamino)-1-oxo-1-((4-(3-(pyridin-4-yl)phenyl)thiazol-2-yl)amino)butan-2-yl)-1-(methylsulfonyl)-1H-pyrrole-3-carboxamide]
> 0.01 | > 0.01 | CN(C)CC[C@H](NC(=O)c1ccn(S(C)(=O)=O)c1)C(=O)Nc1nc(-c2cccc(-c3ccncc3)c2)cs1 [Compound 78, (S)—N-(4-(dimethylamino)-1-oxo-1-((4-(3-(pyridin-4-yl)phenyl)thiazol-2-yl)amino)butan-2-yl)-1-(methylsulfonyl)-1H-pyrrole-3-carboxamide]
> 0.1 | > 0.1 | CN(C)CC[C@@H](NC(=O)c1ccn(S(C)(=O)=O)c1)C(=O)Nc1nc(-c2cccc(-c3ccncc3)c2)cs1 [Compound 79, (R)—N-(4-(dimethylamino)-1-oxo-1-((4-(3-(pyridin-4-yl)phenyl)thiazol-2-yl)amino)butan-2-yl)-1-(methylsulfonyl)-1H-pyrrole-3-carboxamide]
< 0.01 | < 0.01 | Cc1cc(-c2cccc(-c3csc(NC(=O)CNC(=O)c4ccn(S(C)(=O)=O)c4)n3)c2)cc(C)n1 [Compound 81, N-(2-((4-(3-(2,6-dimethylpyridin-4-yl)phenyl)thiazol-2-yl)amino)-2-oxoethyl)-1-(methylsulfonyl)-1H-pyrrole-3-carboxamide]
< 0.01 | < 0.01 | CS(=O)(=O)n1ccc(C(=O)NCC(=O)Nc2nc(-c3cccc(-c4ccnc(C(F)(F)F)c4)c3)cs2)c1 [Compound 82, 1-(methylsulfonyl)-N-(2-oxo-2-((4-(3-(2-(trifluoromethyl)pyridin-4-yl)phenyl)thiazol-2-yl)amino)ethyl)-1H-pyrrole-3-carboxamide]
> 0.01 | > 0.01 | Cn1cc(-c2cccc(-c3csc(NC(=O)CNC(=O)c4ccn(C(C)(C)C)c4)n3)c2)cn1 [Compound 83, 1-(tert-butyl)-N-(2-((4-(3-(1-methyl-1H-pyrazol-4-yl)phenyl)thiazol-2-yl)amino)-2-oxoethyl)-1H-pyrrole-3-carboxamide]
> 0.01 | < 0.01 | CC(C)(C)n1ccc(C(=O)NCC(=O)Nc2nc(-c3cccc(-c4ccncn4)c3)cs2)c1 [Compound 84, 1-(tert-butyl)-N-(2-oxo-2-((4-(3-(pyrimidin-4-yl)phenyl)thiazol-2-yl)amino)ethyl)-1H-pyrrole-3-carboxamide]
< 0.01 | < 0.01 | C[C@@H]1CN(c2cccc(-c3csc(NC(=O)CNC(=O)c4ccn(S(C)(=O)=O)c4)n3)c2)C[C@@H](C)O1 [Compound 85, N-(2-((4-(3-((2R, 6R)-2,6-dimethylmorpholino)phenyl)thiazol-2-yl)amino)-2-oxoethyl)-1-(methylsulfonyl)-1H-pyrrole-3-carboxamide]
< 0.01 | < 0.01 | C[C@H]1CN(c2cccc(-c3csc(NC(=O)CNC(=O)c4ccn(S(C)(=O)=O)c4)n3)c2)C[C@H](C)O1 [Compound 86, N-(2-((4-(3-((2S, 6S)-2,6-dimethylmorpholino)phenyl)thiazol-2-yl)amino)-2-oxoethyl)-1-(methylsulfonyl)-1H-pyrrole-3-carboxamide]
< 0.01 | < 0.01 | C[C@H]1CN(c2cccc(-c3csc(NC(=O)CNC(=O)c4ccn(S(C)(=O)=O)c4)n3)c2)CCO1 [Compound 87, (S)—N-(2-((4-(3-(2-methylmorpholino)phenyl)thiazol-2-yl)amino)-2-oxoethyl)-1-(methylsulfonyl)-1H-pyrrole-3-carboxamide]
< 0.01 | < 0.01 | C[C@@H]1CN(c2cccc(-c3csc(NC(=O)CNC(=O)c4ccn(S(C)(=O)=O)c4)n3)c2)CCO1 [Compound 88, (R)—N-(2-((4-(3-(2-methylmorpholino)phenyl)thiazol-2-yl)amino)-2-oxoethyl)-1-(methylsulfonyl)-1H-pyrrole-3-carboxamide]
> 0.01 | > 0.01 | CC1(C)CN(c2cccc(-c3csc(NC(=O)CNC(=O)c4ccn(S(C)(=O)=O)c4)n3)c2)CCO1 [Compound 89, N-(2-((4-(3-(2,2-dimethylmorpholino)phenyl)thiazol-2-yl)amino)-2-oxoethyl)-1-(methylsulfonyl)-1H-pyrrole-3-carboxamide]
< 0.01 | < 0.01 | C[C@@H]1CN(c2cccc(-c3csc(NC(=O)CNC(=O)c4ccn(C(C)(C)C)c4)n3)c2)C[C@H](C)O1 [Compound 90, 1-(tert-butyl)-N-(2-((4-(3-(cis-2,6-dimethylmorpholino)phenyl)thiazol-2-yl)amino)-2-oxoethyl)-1H-pyrrole-3-carboxamide]
> 0.1 | > 0.01 | COCC1CCN(c2cccc(-c3csc(NC(=O)CNC(=O)c4ccn(S(C)(=O)=O)c4)n3)c2)CC1 [Compound 91, N-(2-((4-(3-(4-(methoxymethyl)piperidin-1-yl)phenyl)thiazol-2-yl)amino)-2-oxoethyl)-1-(methylsulfonyl)-1H-pyrrole-3-carboxamide]
> 0.01 | > 0.01 | COC[C@H]1CCCN(c2cccc(-c3csc(NC(=O)CNC(=O)c4ccn(S(C)(=O)=O)c4)n3)c2)C1 [Compound 92, (S)—N-(2-((4-(3-(3-(methoxymethyl)piperidin-1-yl)phenyl)thiazol-2-yl)amino)-2-oxoethyl)-1-(methylsulfonyl)-1H-pyrrole-3-carboxamide]
> 0.01 | > 0.01 | Cc1cn(-c2cccc(-c3csc(NC(=O)CNC(=O)c4ccn(S(C)(=O)=O)c4)n3)c2)cn1 [Compound 93, N-(2-((4-(3-(4-methyl-1H-imidazol-1-yl)phenyl)thiazol-2-yl)amino)-2-oxoethyl)-1-(methylsulfonyl)-1H-pyrrole-3-carboxamide]
< 0.01 | < 0.01 | CS(=O)(=O)n1ccc(C(=O)NCC(=O)Nc2nc(-c3cccc(N4CCC(O)CC4)c3)cs2)c1 [Compound 94, N-(2-((4-(3-(4-hydroxypiperidin-1-yl)phenyl)thiazol-2-yl)amino)-2-oxoethyl)-1-(methylsulfonyl)-1H-pyrrole-3-carboxamide]
> 0.01 | > 0.01 | COC1CCN(c2cccc(-c3csc(NC(=O)CNC(=O)c4ccn(S(C)(=O)=O)c4)n3)c2)CC1 [Compound 95, N-[2-[[4-[3-(4-methoxy-1-piperidyl)phenyl]thiazol-2-yl]amino]-2-oxo-ethyl]-1-methylsulfonyl-pyrrole-3-carboxamide]
> 0.1 | > 0.01 | COC1(C)CCN(c2cccc(-c3csc(NC(=O)CNC(=O)c4ccn(S(C)(=O)=O)c4)n3)c2)CC1 [Compound 96, N-(2-((4-(3-(4-methoxy-4-methylpiperidin-1-yl)phenyl)thiazol-2-yl)amino)-2-oxoethyl)-1-(methylsulfonyl)-1H-pyrrole-3-carboxamide]
> 0.1 | > 0.1 | CO[C@@H]1CCCN(c2cccc(-c3csc(NC(=O)CNC(=O)c4ccn(C(C)(C)C)c4)n3)c2)C1 [Compound 97, (R)-1-(tert-butyl)-N-(2-((4-(3-(3-methoxypiperidin-1-yl)phenyl)thiazol-2-yl)amino)-2-oxoethyl)-1H-pyrrole-3-carboxamide]
> 0.01 | > 0.01 | CO[C@H]1CCCN(c2cccc(-c3csc(NC(=O)CNC(=O)c4ccn(C(C)(C)C)c4)n3)c2)C1 [Compound 98, (S)-1-(tert-butyl)-N-(2-((4-(3-(3-methoxypiperidin-1-yl)phenyl)thiazol-2-yl)amino)-2-oxoethyl)-1H-pyrrole-3-carboxamide]
> 0.01 | < 0.01 | CS(=O)(=O)n1ccc(C(=O)NCC(=O)Nc2nc(-c3cccc(N4CCOCC4)c3)cs2)c1 [Compound 99, 1-methylsulfonyl-N-[2-[[4-(3-morpholinophenyl)thiazol-2-yl]amino]-2-oxo-ethyl]pyrrole-3-carboxamide]
> 0.01 | > 0.01 | CC(C)(C)n1ccc(C(=O)NCC(=O)Nc2nc(-c3cccc(N4CCOCC4)c3)cs2)c1 [Compound 100, 1-tert-butyl-N-[2-[[4-(3-morpholinophenyl)thiazol-2-yl]amino]-2-oxo-ethyl]pyrrole-3-carboxamide]
< 0.01 | < 0.01 | CS(=O)(=O)n1ccc(C(=O)NCC(=O)Nc2nc(-c3cccc(N4CC5(COC5)C4)c3)cs2)c1 [Compound 101, N-(2-((4-(3-(2-oxa-6-azaspiro[3.3]heptan-6-yl)phenyl)thiazol-2-yl)amino)-2-oxoethyl)-1-(methylsulfonyl)-1H-pyrrole-3-carboxamide]
> 0.1 | > 0.1 | CC(C)(Oc1ccncc1)c1cccc(-c2csc(NC(=O)CNC(=O)c3ccn(S(C)(=O)=O)c3)n2)c1 [Compound 102, 1-(methylsulfonyl)-N-(2-oxo-2-((4-(3-(2-(pyridin-4-yloxy)propan-2-yl)phenyl)thiazol-2-yl)amino)ethyl)-1H-pyrrole-3-carboxamide]
> 0.1 | > 0.1 | CC(Oc1ccccc1)c1cccc(-c2csc(NC(=O)CNC(=O)c3ccn(S(C)(=O)=O)c3)n2)c1 (centres unmarked) [Compound 103, 1-(methylsulfonyl)-N-(2-oxo-2-((4-(3-(1-phenoxyethyl)phenyl)thiazol-2-yl)amino)ethyl)-1H-pyrrole-3-carboxamide]
> 0.01 | > 0.01 | CS(=O)(=O)n1ccc(C(=O)NCC(=O)Nc2nc(-c3cccc(COc4ccccc4)c3)cs2)c1 [Compound 104, 1-(methylsulfonyl)-N-(2-oxo-2-((4-(3-(phenoxymethyl)phenyl)thiazol-2-yl)amino)ethyl)-1H-pyrrole-3-carboxamide]
